Test results published in patent US11020409B2, “Broad antiviral therapy with membrane modifying oxysterols” (priority 2012, dated 2021).

Tested on: VSV-GFP
Assay: microbe, parasite or virus in culture
Type: cell-based, vesicular stomatitis virus

In the case of C[C@H](CCCC(C)(C)O)[C@H]1CC[C@H]2[C@@H]3CC=C4C[C@@H](O)CC[C@]4(C)[C@H]3CC[C@]12C [25HC, 25-hydroxycholesterol], the “VSV infection in HEK293T overexpressing active forms of SREBP1-A, SREBP1-B, and SREBP2” value is reported as “inhibited VSV infection”.
